Measured values from patent US20190152957A1, “PYRIDIN-3-YL ACETIC ACID DERIVATIVES AS INHIBITORS OF HUMAN IMMUNODEFICIENCY VIRUS REPLICATION” (ViiV HEALTHCARE UK (NO.5) LIMITED, priority 2016, published 2019).
pEC50: −log10 of the molar value.

tested on: recombinant NL-RLuc virus (HIV NL4-3 with Renilla Luciferase gene) in MT-2 cells; experiment: Inhibition of HIV replication (NL-RLuc virus, luciferase readout in MT-2 cells); assay type: cell-based; conditions: MT2, 120 h, read-out: Activity
Text: Inhibition of HIV Replication:
A recombinant NL-RLuc proviral clone was constructed in which a section of the nef gene from NL4-3 was replaced with the Renilla Luciferase gene. This virus is fully infectious and can undergo multiple cycles of replication in cell culture. In addition, the luciferous reporter provides a simple and easy method for quantitating the extent of virus growth and consequently, the antiviral activity of test compounds. The plasmid pNLRLuc contains the proviral NL-Rluc DNA cloned into pUC18 at the PvuII site. The NL-RLuc virus was prepared by transfection of 293T cells with the plasmid pNLRLuc. Transfections were performed using the LipofectAMINE PLUS kit from Invitrogen (Carlsbad, Calif.) according to the manufacturer and the virus generated was titered in MT-2 cells. For susceptibility analyses, the titrated virus was used to infect MT-2 cells in the presence of compound, and after 5 days of incubation, cells were processed and quantitated for virus growth by the amount of expressed luciferase. Assay media was RPMI 1640 supplemented with 10% heat inactivated fetal bovine serum (FBS), 100 units/ml penicillin G/100 units/ml streptomycin, 10 mM HEPES buffer pH 7.55 and 2 mM L-glutamine. The results from at least 2 experiments were used to calculate the EC50 values. Luciferase was quantitated using the Dual Luciferase kit from Promega (Madison, Wis.). Susceptibility of viruses to compounds was determined by incubation in the presence of serial dilutions of the compound. The 50% effective concentration (EC50) was calculated by using the exponential form of the median effect equation where (Fa)=1/[1+(ED50/drug conc.)^m](Johnson V A, Byington R T. Infectivity Assay. In Techniques in HIV Research. ed. Aldovini A, Walker BD. 71-76. New York: Stockton Press. 1990). Activity equal to A refers to a compound having an EC50≤100 nM, while B and C denote compounds having an EC50 between 100 nM and 1 uM (B) or >1 uM (C).

Q: `Cc1nc(C)c([C@H](OC(C)(C)C)C(=O)O)c(N2CCC(C)(C)CC2)c1-c1ccc2c(c1)CCN(C[C@H]1C[C@H]3C=C[C@@H]1C3)C2` [Compound 6, (S)-2-(5-(2-((1S,2S,4S)-bicyclo[2.2.1]hept-5-en-2-ylmethyl)-1,2,3,4-tetrahydroisoquinolin-6-yl)-4-(4,4-dimethylpiperidin-1-yl)-2,6-dimethylpyridin-3-yl)-2-(tert-butoxy)acetic acid] was tested. Which pEC50 did it give?
A: > 7.00

Q: `Cc1nc(C)c([C@H](OC(C)(C)C)C(=O)O)c(N2CCC(C)(C)CC2)c1-c1ccc2c(c1)CCN(Cc1ccncc1)C2` [Compound 12, (S)-2-(tert-butoxy)-2-(4-(4,4-dimethylpiperidin-1-yl)-2,6-dimethyl-5-(2-(pyridin-4-ylmethyl)-1,2,3,4-tetrahydroisoquinolin-6-yl)pyridin-3-yl)acetic acid] was tested. Which pEC50 did it give?
A: > 7.00

Q: How did the pEC50 turn out when `Cc1nc(C)c([C@H](OC(C)(C)C)C(=O)O)c(N2CCC(C)(C)CC2)c1-c1ccc2c(c1)CCN(Cc1ccnc(Cl)c1F)C2` [Compound 28, (S)-2-(tert-butoxy)-2-(5-(2-((2-chloro-3-fluoropyridin-4-yl)methyl)-1,2,3,4-tetrahydroisoquinolin-6-yl)-4-(4,4-dimethylpiperidin-1-yl)-2,6-dimethylpyridin-3-yl)acetic acid] was run?
A: > 7.00

Q: How did the pEC50 turn out when `Cc1nc(CN2CCc3cc(-c4c(C)nc(C)c([C@H](OC(C)(C)C)C(=O)O)c4N4CCC(C)(C)CC4)ccc3C2)c(C)o1` [Compound 18, (S)-2-(tert-butoxy)-2-(5-(2-((2,5-dimethyloxazol-4-yl)methyl)-1,2,3,4-tetrahydroisoquinolin-6-yl)-4-(4,4-dimethylpiperidin-1-yl)-2,6-dimethylpyridin-3-yl)acetic acid] was run?
A: > 7.00

Q: With `Cc1nc(C)c([C@H](OC(C)(C)C)C(=O)O)c(N2CCC(C)(C)CC2)c1-c1ccc2c(c1)CCN(Cc1c[nH]cn1)C2` [Compound 40, (S)-2-(5-(2-((1H-imidazol-4-yl)methyl)-1,2,3,4-tetrahydroisoquinolin-6-yl)-4-(4,4-dimethylpiperidin-1-yl)-2,6-dimethylpyridin-3-yl)-2-(tert-butoxy)acetic acid] as the compound, how does the pEC50 read?
A: < 6.00

Q: How did the pEC50 turn out when `Cc1nc(C)c([C@H](OC(C)(C)C)C(=O)O)c(N2CCC(C)(C)CC2)c1-c1ccc2c(c1)CCN(CC1CCCCC1)C2` [Compound 5, (S)-2-(tert-butoxy)-2-(5-(2-(cyclohexylmethyl)-1,2,3,4-tetrahydroisoquinolin-6-yl)-4-(4,4-dimethylpiperidin-1-yl)-2,6-dimethylpyridin-3-yl)acetic acid] was run?
A: > 7.00

Q: `COc1ncccc1CN1CCc2cc(-c3c(C)nc(C)c([C@H](OC(C)(C)C)C(=O)O)c3N3CCC(C)(C)CC3)ccc2C1` [Compound 35, (S)-2-(tert-butoxy)-2-(4-(4,4-dimethylpiperidin-1-yl)-5-(2-((2-methoxypyridin-3-yl)methyl)-1,2,3,4-tetrahydroisoquinolin-6-yl)-2,6-dimethylpyridin-3-yl)acetic acid] was tested. Which pEC50 did it give?
A: > 7.00

Q: `Cc1n[nH]cc1CN1CCc2cc(-c3c(C)nc(C)c([C@H](OC(C)(C)C)C(=O)O)c3N3CCC(C)(C)CC3)ccc2C1` [Compound 53, (S)-2-(tert-butoxy)-2-(4-(4,4-dimethylpiperidin-1-yl)-2,6-dimethyl-5-(2-((3-methyl-1H-pyrazol-4-yl)methyl)-1,2,3,4-tetrahydroisoquinolin-6-yl)pyridin-3-yl)acetic acid] was tested. Which pEC50 did it give?
A: > 7.00

Q: With `Cc1nc(C)c([C@H](OC(C)(C)C)C(=O)O)c(N2CCC(C)(C)CC2)c1-c1ccc2c(c1)CCN(Cc1ncco1)C2` [Compound 37, (S)-2-(tert-butoxy)-2-(4-(4,4-dimethylpiperidin-1-yl)-2,6-dimethyl-5-(2-(oxazol-2-ylmethyl)-1,2,3,4-tetrahydroisoquinolin-6-yl)pyridin-3-yl)acetic acid] as the compound, how does the pEC50 read?
A: > 7.00

Q: How did the pEC50 turn out when `COc1cc(CN2CCc3cc(-c4c(C)nc(C)c([C@H](OC(C)(C)C)C(=O)O)c4N4CCC(C)(C)CC4)ccc3C2)ccn1` [Compound 31, (S)-2-(tert-butoxy)-2-(4-(4,4-dimethylpiperidin-1-yl)-5-(2-((2-methoxypyridin-4-yl)methyl)-1,2,3,4-tetrahydroisoquinolin-6-yl)-2,6-dimethylpyridin-3-yl)acetic acid] was run?
A: > 7.00

Q: `CCn1cc(CN2CCc3cc(-c4c(C)nc(C)c([C@H](OC(C)(C)C)C(=O)O)c4N4CCC(C)(C)CC4)ccc3C2)c(C)n1` [Compound 22, (S)-2-(tert-butoxy)-2-(4-(4,4-dimethylpiperidin-1-yl)-5-(2-((1-ethyl-3-methyl-1H-pyrazol-4-yl)methyl)-1,2,3,4-tetrahydroisoquinolin-6-yl)-2,6-dimethylpyridin-3-yl)acetic acid] was tested. Which pEC50 did it give?
A: > 7.00

Q: How did the pEC50 turn out when `Cc1nc(C)c([C@H](OC(C)(C)C)C(=O)O)c(N2CCC(C)(C)CC2)c1-c1ccc2c(c1)CCN(C[C@H]1C[C@@H]3C=C[C@H]1C3)C2` [Compound 7, (S)-2-(5-(2-((1R,2S,4R)-bicyclo[2.2.1]hept-5-en-2-ylmethyl)-1,2,3,4-tetrahydroisoquinolin-6-yl)-4-(4,4-dimethylpiperidin-1-yl)-2,6-dimethylpyridin-3-yl)-2-(tert-butoxy)acetic acid] was run?
A: > 7.00

Q: `CCn1cc(CN2CCc3cc(-c4c(C)nc(C)c([C@H](OC(C)(C)C)C(=O)O)c4N4CCC(C)(C)CC4)ccc3C2)cn1` [Compound 44, (S)-2-(tert-butoxy)-2-(4-(4,4-dimethylpiperidin-1-yl)-5-(2-((1-ethyl-1H-pyrazol-4-yl)methyl)-1,2,3,4-tetrahydroisoquinolin-6-yl)-2,6-dimethylpyridin-3-yl)acetic acid] was tested. Which pEC50 did it give?
A: > 7.00

Q: With `Cc1cc(CN2CCc3cc(-c4c(C)nc(C)c([C@H](OC(C)(C)C)C(=O)O)c4N4CCC(C)(C)CC4)ccc3C2)n(C)n1` [Compound 16, (S)-2-(tert-butoxy)-2-(5-(2-((1,3-dimethyl-1H-pyrazol-5-yl)methyl)-1,2,3,4-tetrahydroisoquinolin-6-yl)-4-(4,4-dimethylpiperidin-1-yl)-2,6-dimethylpyridin-3-yl)acetic acid] as the compound, how does the pEC50 read?
A: > 7.00

Q: How did the pEC50 turn out when `Cc1nc(C)c([C@H](OC(C)(C)C)C(=O)O)c(N2CCC(C)(C)CC2)c1-c1ccc2c(c1)CCN(Cc1nn(C)cc1Cl)C2` [Compound 24, (S)-2-(tert-butoxy)-2-(5-(2-((4-chloro-1-methyl-1H-pyrazol-3-yl)methyl)-1,2,3,4-tetrahydroisoquinolin-6-yl)-4-(4,4-dimethylpiperidin-1-yl)-2,6-dimethylpyridin-3-yl)acetic acid] was run?
A: > 7.00

Q: How did the pEC50 turn out when `Cc1nc(C)c([C@H](OC(C)(C)C)C(=O)O)c(N2CCC(C)(C)CC2)c1-c1ccc2c(c1)CCN(Cc1nc(-c3ccccc3)oc1C)C2` [Compound 14, (S)-2-(tert-butoxy)-2-(4-(4,4-dimethylpiperidin-1-yl)-2,6-dimethyl-5-(2-((5-methyl-2-phenyloxazol-4-yl)methyl)-1,2,3,4-tetrahydroisoquinolin-6-yl)pyridin-3-yl)acetic acid] was run?
A: > 7.00

Q: How did the pEC50 turn out when `COc1ncc(CN2CCc3cc(-c4c(C)nc(C)c([C@H](OC(C)(C)C)C(=O)O)c4N4CCC(C)(C)CC4)ccc3C2)c(OC)n1` [Compound 48, (S)-2-(tert-butoxy)-2-(5-(2-((2,4-dimethoxypyrimidin-5-yl)methyl)-1,2,3,4-tetrahydroisoquinolin-6-yl)-4-(4,4-dimethylpiperidin-1-yl)-2,6-dimethylpyridin-3-yl)acetic acid] was run?
A: > 7.00

Q: How did the pEC50 turn out when `CCN1CCc2cc(-c3c(C)nc(C)c([C@H](OC(C)(C)C)C(=O)O)c3N3CCC(C)(C)CC3)ccc2C1` [Compound 55, (S)-2-(tert-butoxy)-2-(4-(4,4-dimethylpiperidin-1-yl)-5-(2-ethyl-1,2,3,4-tetrahydroisoquinolin-6-yl)-2,6-dimethylpyridin-3-yl)acetic acid] was run?
A: 6.00 to 7.00

Q: How did the pEC50 turn out when `Cc1nc[nH]c1CN1CCc2cc(-c3c(C)nc(C)c([C@H](OC(C)(C)C)C(=O)O)c3N3CCC(C)(C)CC3)ccc2C1` [Compound 39, (S)-2-(tert-butoxy)-2-(4-(4,4-dimethylpiperidin-1-yl)-2,6-dimethyl-5-(2-((4-methyl-1H-imidazol-5-yl)methyl)-1,2,3,4-tetrahydroisoquinolin-6-yl)pyridin-3-yl)acetic acid] was run?
A: 6.00 to 7.00

Q: How did the pEC50 turn out when `Cc1nc(C)c([C@H](OC(C)(C)C)C(=O)O)c(N2CCC(C)(C)CC2)c1-c1ccc2c(c1)CCN(Cc1cn[nH]c1)C2` [Compound 50, (S)-2-(5-(2-((1H-pyrazol-4-yl)methyl)-1,2,3,4-tetrahydroisoquinolin-6-yl)-4-(4,4-dimethylpiperidin-1-yl)-2,6-dimethylpyridin-3-yl)-2-(tert-butoxy)acetic acid] was run?
A: > 7.00

Q: How did the pEC50 turn out when `Cc1nc(C)c([C@H](OC(C)(C)C)C(=O)O)c(N2CCC(C)(C)CC2)c1-c1ccc2c(c1)CCN(CC1CCCOC1)C2` (stereo partly drawn) [Compound 1, (2S)-2-(tert-butoxy)-2-(4-(4,4-dimethylpiperidin-1-yl)-2,6-dimethyl-5-(2-((tetrahydro-2H-pyran-3-yl)methyl)-1,2,3,4-tetrahydroisoquinolin-6-yl)pyridin-3-yl)acetic acid] was run?
A: > 7.00

same assay, conditions: MT2, 120 h, read-out: EC50 μM

Q: With `Cc1n[nH]cc1CN1CCc2cc(-c3c(C)nc(C)c([C@H](OC(C)(C)C)C(=O)O)c3N3CCC(C)(C)CC3)ccc2C1` [Compound 53, (S)-2-(tert-butoxy)-2-(4-(4,4-dimethylpiperidin-1-yl)-2,6-dimethyl-5-(2-((3-methyl-1H-pyrazol-4-yl)methyl)-1,2,3,4-tetrahydroisoquinolin-6-yl)pyridin-3-yl)acetic acid] as the compound, how does the EC50 read?
A: 0.061 µM

Q: With `Cc1nc(C)c([C@H](OC(C)(C)C)C(=O)O)c(N2CCC(C)(C)CC2)c1-c1ccc2c(c1)CCN(Cc1nc(-c3ccccc3)oc1C)C2` [Compound 14, (S)-2-(tert-butoxy)-2-(4-(4,4-dimethylpiperidin-1-yl)-2,6-dimethyl-5-(2-((5-methyl-2-phenyloxazol-4-yl)methyl)-1,2,3,4-tetrahydroisoquinolin-6-yl)pyridin-3-yl)acetic acid] as the compound, how does the EC50 read?
A: 0.016 µM

Q: How did the EC50 turn out when `Cc1nc[nH]c1CN1CCc2cc(-c3c(C)nc(C)c([C@H](OC(C)(C)C)C(=O)O)c3N3CCC(C)(C)CC3)ccc2C1` [Compound 39, (S)-2-(tert-butoxy)-2-(4-(4,4-dimethylpiperidin-1-yl)-2,6-dimethyl-5-(2-((4-methyl-1H-imidazol-5-yl)methyl)-1,2,3,4-tetrahydroisoquinolin-6-yl)pyridin-3-yl)acetic acid] was run?
A: 0.231 µM

Q: `Cc1nc(C)c([C@H](OC(C)(C)C)C(=O)O)c(N2CCC(C)(C)CC2)c1-c1ccc2c(c1)CCN(CC1CCCOC1)C2` (stereo partly drawn) [Compound 1, (2S)-2-(tert-butoxy)-2-(4-(4,4-dimethylpiperidin-1-yl)-2,6-dimethyl-5-(2-((tetrahydro-2H-pyran-3-yl)methyl)-1,2,3,4-tetrahydroisoquinolin-6-yl)pyridin-3-yl)acetic acid] was tested. Which EC50 did it give?
A: 0.028 µM
